In test [1] the test system is NK cells. Kind of test: qRT-PCR of NK cell gene expression. It is filed as cell-based, human. The following applies: 16 hours. Here is the method:
In a second set of experiments, 5×10^5 purified NK cells were cultured as described herein, in 24 well-plates and were then collected, and lysed after 16 hours of culture.
The lysates were treated to extract the mRNA, which was then subjected to qRT-PCR to determine expression of each of T-bet (a transcription factor), IFN-γ, perforin, granzyme A, and granzyme B.
In general terms: In qPCR the cycle at which signal appears reflects the starting amount.

Test [2] has as its system NK cells. The test can be described thus: Multiplex cytokine and chemokine array of NK cell supernatants. The following applies: activated NK cells. The class given is cell-based, human. Here is the method:
The analysis reported supra was extended to an analysis of the supernatants produced during the various cell culture experiments. A multiplex array system for chemokines and cytokines were used, as was a standard ELISA for measuring IFN-γ. Bead arrays were used to quantify each of IFN-γ, IL-1 IL-6, IL-8, IL-10, TNF-α, GM-CSF, IP-10, MCP-1, MIP-1α, and 1β. Levels of production were measured using standard methodologies.

The test system of test [3] is NK cells (target cells K562 or Jurkat cells). The test can be described thus: NK cell killing of calcein-labeled target cells. It is filed as cell-based, human. The following applies: 100 ng/ml, 3 days culture, K562 or Jurkat targets, 4 hours. As for the experimental part:
1×10^6 purified NK cells were cultured in 24 well-plates, either with a high dose of IL-2 (100 U/ml), or a combination of 20 U/ml of IL-2 and IL-12. The culturing took place in the absence of either of activin-A or TGF-β or 100 ng/ml of one of them. The culture continued for 3 days.
After the 3 days of culture, the NK cells were combined with target cells K562 or Jurkat cells, at effector (NK cells): target (K562 or Jurkat cells) ratios of 5:1, 2:1, and 0.1:1. The target cells had been labeled with calcein previously. The total number of labeled target cells was 2×10^4, and the mixture was incubated for 4 hours. The efficiency of killing was determined by measuring calcein dye release via spectrometry.

In the next test the test system is CD8+ T cells. Kind of test: Purified CD8+ T cell activation and expansion with recombinant activin-A. Conditions: anti-CD3/CD28 beads, activin-A 0, 10, 100 ng/ml, 24 or 72 hours. The class given is cell-based, human. Here is the method:
To test this, CD8^+ T cells were purified and labeled with carboxy fluorescein succinimidy/ester (“CFSE” hereafter). These cells were cultured in wells, at 1×10^5 cells/well, in standard medium supplemented with 20 U/ml of IL-2, either with or without anti-CD3/CD28 bead stimulation, in the presence of increasing doses of commercially available, recombinant activin-A (0, 10, and 100 ng/ml), for 24 or 72 hours. Cell division was assessed over time by flow cytometry and IFN-γ production via a standard ELISA.

In test [4] the test system is Human NK cells. Kind of test: IFN-γ ELISA of purified NK cells. It is filed as cell-based. Here is the method: A total of 1×10^5 highly purified human NK cells were cultured for 20 hours in medium supplemented with 20 U/ml IL-2, and 10 ng/ml IL-12. Either human recombinant activin-A, or TGF-β was added to the cultures, at concentrations of 10, 50 and 100 ng/ml. Supernatants were then tested for IFN-γ via ELISA, using standard methods. In these experiments 1×10^5 highly purified human NK cells were cultured as above, but were cultured with Poly I:C (10 μg/ml), or LPS (100 ng/ml), with or without 10, 50, or 100 ng/ml of recombinant human activin-A. In some cases, the known compound “SB431542,” which blocks activin-A binding to receptors was added. IFN-γ was then measured via ELISA, or by intracellular cytokine staining after 16 hours of culture, via addition of 1 μg/ml BFA, to prevent cytokine release. The impact of activin-A on production of IFN-γ by NK cells, in the absence of dendritic cells, was ascertained. Purified NK cells (1×10^5) were cultured in 96 well-plants, in media that was supplemented with 20 U/ml IL-2 and 10 ng/ml, IL-12, in the absence of, or with increasing concentrations of either activin-A, or TGF-β. Culture supernatants were assayed for IFN-γ after 24 hours of culture, using ELISAs, as described supra. As in the prior experiments, 1×10^5 purified NK cells were cultured in media supplemented with IL-2 only, or IL-2 plus IL-12, either with or without one of poly I:C or LPS, in the presence or absence of increased levels of activin-A.

The subject of test [5] is Human NK cells. The test can be described thus: Intracellular cytokine staining of IFN-γ in NK cells. The class given is cell-based. Conditions: 16 hours, BFA 1 μg/ml. As for the experimental part:
In these experiments 1×10^5 highly purified human NK cells were cultured as above, but were cultured with Poly I:C (10 μg/ml), or LPS (100 ng/ml), with or without 10, 50, or 100 ng/ml of recombinant human activin-A. In some cases, the known compound “SB431542,” which blocks activin-A binding to receptors was added. IFN-γ was then measured via ELISA, or by intracellular cytokine staining after 16 hours of culture, via addition of 1 μg/ml BFA, to prevent cytokine release.
In additional follow up experiments, the NK cells were stimulated with IL-2 or the combination of IL-2 and IL-12, plus poly I:C or LPS, for 16 hours, in the presence of 1 μg/ml of BFA, before a standard ICS assay was carried out via flow cytometry.

Test [6] relates to Human NK cells. The test can be described thus: Western blot for Smad 2/3 in NK cells. It is filed as cell-based. Conditions: ex vivo purified NK cells, 50 ng/ml activin-A, 4 hours. Here is the method:
Human NK cells were highly purified, following standard methods; and were either lysed immediately or cultured for 20 hours in medium that had been supplemented with 20 U/ml IL-2, either with or without 10 ng/ml of IL-12, or with or without the toll like receptor 3 ligand Poly I:C, 5×10^5, lysed immediately, and then assayed for ALK-4 (an activin type I receptor), and RITA (an activin type II receptor), via qRT-PCR. In parallel, 1×10^5 highly purified NK cells were cultured in medium supplemented with 20 U/ml IL-2, with or without 50 ng/ml of recombinant human activin-A. Cells were harvested after 4 hours, and Western blotting was carried out for Smad 2/3 and β-actin.
Background: Immunoblotting shows a protein as a band on a membrane.

Turning to activin-A, in the test on NK cells [1], the “IFN-γ mRNA expression” value was “inhibited expression of T-bet and IFN-γ significantly”; the “T-bet mRNA expression” value was “inhibited expression of T-bet and IFN-γ significantly”; the “perforin, granzyme A and granzyme B mRNA expression” value is recorded as “had no effect”. In the test with NK cells [2], the GM-CSF production result is listed as “suppressed”, the “IFN-γ production (bead array)” value was “suppressive effect”, the IL-1β production result is listed as “suppressed” and the IL-6 production entry is reported as “suppressed”. For the same substance, in the test on NK cells [2], the IL-8 production entry was “suppressing”; the IL-10 production entry is recorded as “increased the low amounts of IL-10 that had been produced, significantly”; the IP-10 production entry is given as “suppressing”; the MIP-1α production entry is “suppressing”. In the test on NK cells [2], the MIP-1β production result is “suppressing” and the TNF-α production entry is reported as “suppressed”. The “killing ability of NK cells” value in test [3] was “had no impact whatsoever”. In addition, in the test on CD8+ T cells, the “CD8+ T cell ability to generate IFN-γ” value was “did not regulate” and the “CD8+ T cell division” value was “did not regulate”. Moreover, in the test with Human NK cells [4] (NK cells stimulated with Poly I:C, activin-A 10, 50, 100 ng/ml), the IFN-γ production result was “suppressed IFN-γ production”. In the test on Human NK cells [4] (NK cells, IL-2 and IL-12, 20 hours, 10, 50, 100 ng/ml), the IFN-γ production result was “as effective as TGF-β in suppressing the production of IFN-γ”. The IFN-γ production result in the test with Human NK cells [4] (NK cells, IL-2 and IL-12, 24 hours, increasing concentrations) was “as potent as TGF-β in inhibiting IFN-γ production”. Moreover, in the test with Human NK cells [4] (NK cells, IL-2 plus IL-12 with poly I:C or LPS, increased levels of activin-A), the IFN-γ production result was “suppressed by addition of activin-A, in a concentration dependent manner”. For the same substance, in the test on Human NK cells [5], the “number of IFN-γ producing cells” value was “not due to a decrease in the number of IFN-γ producing cells”. In addition, in the test on Human NK cells [5] (listed as Activin-A), the “number of IFN-γ producing cells” value is “did not effect these populations”. For the same substance, the “intracellular Smad 2/3 levels” value in the test on Human NK cells [6] is listed as “enhanced intracellular Smad 2/3 levels”.

The values are drawn from US20100279409A1, “METHOD FOR MODIFYING CELLUAR IMMUNE RESONSE BY MODULATING ACTIVIN ACTIVITY” (priority 2007, published 2010).
